Data: patent US8796256B2 (Janssen Pharmaceutica NV, priority 2010, dated 2014)

target: T1, ERR1 (also known as ERR-α or ERR-1) (Homo sapiens, UniProt P11474); test: TR-FRET assay (disruption of co-activator peptide binding to ERR1 LBD); format: biochemical; settings: 6 nM 6His-ERR1LBD, 6 nM GST-SRC-2 peptide; average of 3 independent experiments
T1 sequence (P11474 193-421 limits assumed): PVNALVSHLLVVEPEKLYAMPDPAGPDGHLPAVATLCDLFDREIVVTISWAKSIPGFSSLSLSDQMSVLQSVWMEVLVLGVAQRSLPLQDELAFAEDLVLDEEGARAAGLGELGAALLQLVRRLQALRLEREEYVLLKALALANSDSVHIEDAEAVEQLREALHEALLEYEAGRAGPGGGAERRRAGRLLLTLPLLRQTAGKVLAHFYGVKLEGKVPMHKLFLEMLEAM
Summary of the method: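 His-tagged ERR1 ligand-binding domain and GST-labelled SRC-2 peptide, each 6 nM, equilibrated at 25° C for 4-18 h in Tris pH 8/Hepes/KCl/DTT/delipidated BSA buffer. Compound-induced loss of co-activator binding read as Eu cryptate→XL665 energy transfer; values from hyperbolic curve fits averaged over 3 independent runs.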

With O=C1S/C(=C\c2ccc3c(cnn3Cc3ccc(Cl)cc3C(F)(F)F)c2)C(=O)N1[C@@H]1CCOC1 [Compound 125, (5Z)-5-({1-[4-Chloro-2-(trifluoromethyl)benzyl]-1H-indazol-5-yl}methylidene)-3-[(3R)-tetrahydrofuran-3-yl]-1,3-thiazolidine-2,4-dione] as the molecule, how does the EC50 read?
Its EC50 is 47 nM.

CN1C(=O)S/C(=C\c2ccc3c(cnn3Cc3ccc(Cl)cc3C(F)(F)F)c2)C1=O [Compound 127, (5Z)-5-({1-[4-Chloro-2-(trifluoromethyl)-benzyl]-1H-indazol-5-yl}methylidene)-3-methyl-1,3-thiazolidine-2,4-dione] was tested. Which EC50 did it give?
Its EC50 is 32 nM.

CS(=O)(=O)CCN1C(=O)S/C(=C\c2ccc3c(cnn3Cc3ccc(Cl)cc3C(F)(F)F)c2)C1=O [Compound 129, (5Z)-5-({1-[4-Chloro-2-(trifluoromethyl)benzyl]-1H-indazol-5-yl}methylidene)-3-[2-(methylsulfonyl)ethyl]-1,3-thiazolidine-2,4-dione] was tested. Which EC50 did it give?
Its EC50 is 18 nM.

O=C1S/C(=C\c2ccc3c(cnn3Cc3ccc(Cl)cc3C(F)(F)F)c2)C(=O)N1CC1CCNCC1 [Compound 130, (5Z)-5-({1-[4-Chloro-2-(trifluoromethyl)benzyl]-1H-indazol-5-yl}methylidene)-3-(piperidin-4-ylmethyl)-1,3-thiazolidine-2,4-dione] was tested. Which EC50 did it give?
Its EC50 is 33 nM.

O=C1OCCN1CCN1C(=O)S/C(=C\c2ccc3c(cnn3Cc3ccc(Cl)cc3C(F)(F)F)c2)C1=O [Compound 131, (5Z)-5-({1-[4-Chloro-2-(trifluoromethyl)benzyl]-1H-indazol-5-yl}methylidene)-3-[2-(2-oxo-1,3-oxazolidin-3-yl)ethyl]-1,3-thiazolidine-2,4-dione] was tested. Which EC50 did it give?
Its EC50 is 5 nM.

O=C1S/C(=C\c2ccc3c(cnn3Cc3ccc(Cl)cc3C(F)(F)F)c2)C(=O)N1[C@@H]1CN2CCC1CC2 [Compound 132, (5Z)-3-[(3S)-1-Azabicyclo[2.2.2]oct-3-yl]-5-({1-[4-chloro-2-(trifluoromethyl)benzyl]-1H-indazol-5-yl}methylidene)-1,3-thiazolidine-2,4-dione] was tested. Which EC50 did it give?
The EC50 was 18 nM.

Which EC50 does the source give for CN1CC(N2C(=O)S/C(=C\c3ccc4c(cnn4Cc4ccc(Cl)cc4C(F)(F)F)c3)C2=O)C1 [Compound 133, (5Z)-5-({1-[4-Chloro-2-(trifluoromethyl)benzyl]-1H-indazol-5-yl}methylidine)-3-(1-methylazetidin-3-yl)-1,3-thiazolidine-2,4-dione] here?
Its EC50 is 20 nM.

For CN1CCC(CN2C(=O)S/C(=C\c3ccc4c(cnn4Cc4ccc(Cl)cc4C(F)(F)F)c3)C2=O)CC1 [Compound 134, (5Z)-5-({1-[4-Chloro-2-(trifluoromethyl)benzyl]-1H-indazol-5-yl}methylidene)-3-[(1-methylpiperidin-4-yl)methyl]-1,3-thiazolidine-2,4-dione], which EC50 is on record?
Its EC50 is 45 nM.

With CN1CCC(N2C(=O)S/C(=C\c3ccc4c(cnn4Cc4ccc(Cl)cc4C(F)(F)F)c3)C2=O)CC1 [Compound 135, (5Z)-5-({1-[4-Chloro-2-(trifluoromethyl)benzyl]-1H-indazol-5-yl}methylidene)-3-(1-methylpiperidin-4-yl)-1,3-thiazolidine-2,4-dione] as the molecule, how does the EC50 read?
The EC50 was 19 nM.

Which EC50 does the source give for CN1CCCC(N2C(=O)S/C(=C\c3ccc4c(cnn4Cc4ccc(Cl)cc4C(F)(F)F)c3)C2=O)C1 (centres unmarked) [Compound 136, (5Z)-5-({1-[4-Chloro-2-(trifluoromethyl)benzyl]-1H-indazol-5-yl}methylidene)-3-(1-methylpiperidin-3-yl)-1,3-thiazolidine-2,4-dione] here?
The EC50 was 35 nM.

With O=C1S/C(=C\c2ccc3c(cnn3Cc3ccc(Cl)cc3C(F)(F)F)c2)C(=O)N1Cc1ccccn1 [Compound 137, (5Z)-5-({1-[4-Chloro-2-(trifluoromethyl)benzyl]-1H-indazol-5-yl}methylidene)-3-(pyridin-2-ylmethyl)-1,3-thiazolidine-2,4-dione] as the molecule, how does the EC50 read?
The EC50 was 66 nM.

How did the EC50 turn out when O=C1S/C(=C\c2ccc3c(cnn3Cc3ccc(Cl)cc3C(F)(F)F)c2)C(=O)N1Cc1cc(O)no1 [Compound 138, (5Z)-5-({1-[4-Chloro-2-(trifluoromethyl)benzyl]-1H-indazol-5-yl}methylidene)-3-[(3-hydroxyisoxazol-5-yl)methyl]-1,3-thiazolidine-2,4-dione] was run?
The EC50 was 42 nM.

For Cn1cncc1CN1C(=O)S/C(=C\c2ccc3c(cnn3Cc3ccc(Cl)cc3C(F)(F)F)c2)C1=O [Compound 139, (5Z)-5-({1-[4-Chloro-2-(trifluoromethyl)benzyl]-1H-indazol-5-yl}methylidene)-3-[(1-methyl-1H-imidazol-5-yl)methyl]-1,3-thiazolidine-2,4-dione], which EC50 is on record?
Its EC50 is 16 nM.

For CN1CCCC1CCN1C(=O)S/C(=C\c2ccc3c(cnn3Cc3ccc(Cl)cc3C(F)(F)F)c2)C1=O (centres unmarked) [Compound 140, (5Z)-5-({1-[4-Chloro-2-(trifluoromethyl)benzyl]-1H-indazol-5-yl}methylidene)-3-[2-(1-methylpyrrolidin-2-yl)ethyl]-1,3-thiazolidine-2,4-dione], which EC50 is on record?
Its EC50 is 32 nM.

How did the EC50 turn out when CCOC(=O)[C@@H]1CCC[C@H]1N1C(=O)S/C(=C\c2ccc3c(cnn3Cc3ccc(Cl)cc3C(F)(F)F)c2)C1=O [Compound 141, Ethyl (1R,2R)-2-[(5Z)-5-({1-[4-chloro-2-(trifluoromethyl)benzyl]-1H-indazol-5-yl}methylidene)-2,4-dioxo-1,3-thiazolidin-3-yl]cyclopentanecarboxylate] was run?
Its EC50 is 183 nM.

How did the EC50 turn out when O=C(O)[C@@H]1CCC[C@H]1N1C(=O)S/C(=C\c2ccc3c(cnn3Cc3ccc(Cl)cc3C(F)(F)F)c2)C1=O [Compound 142, (1R,2R)-2-[(5Z)-5-({1-[4-Chloro-2-(trifluoromethyl)benzyl]-1H-indazol-5-yl}methylidene)-2,4-dioxo-1,3-thiazolidin-3-yl]cyclopentanecarboxylic acid] was run?
Its EC50 is 38 nM.

With CN1CC[C@@H](N2C(=O)S/C(=C\c3ccc4c(cnn4Cc4ccc(Cl)cc4C(F)(F)F)c3)C2=O)C1 [Compound 144, (5Z)-5-({1-[4-Chloro-2-(trifluoromethyl)benzyl]-1H-indazol-5-yl}methylidene)-3-[(3R)-1-methylpyrrolidin-3-yl]-1,3-thiazolidine-2,4-dione] as the molecule, how does the EC50 read?
Its EC50 is 31 nM.

O=C1S/C(=C\c2ccc3c(cnn3Cc3ccc(Cl)cc3C(F)(F)F)c2)C(=O)N1C[C@@H]1CCCN1 [Compound 145, (5Z)-5-({1-[4-Chloro-2-(trifluoromethyl)benzyl]-1H-indazol-5-yl}methylidene)-3-[(2S)-pyrrolidin-2-ylmethyl]-1,3-thiazolidine-2,4-dione] was tested. Which EC50 did it give?
Its EC50 is 27 nM.

With COCCN1CCC(N2C(=O)S/C(=C\c3ccc4c(cnn4Cc4ccc(Cl)cc4C(F)(F)F)c3)C2=O)CC1 [Compound 147, (5Z)-5-({1-[4-Chloro-2-(trifluoromethyl)benzyl]-1H-indazol-5-yl}methylidene)-3-[1-(2-methoxyethyl)piperidin-4-yl]-1,3-thiazolidine-2,4-dione] as the molecule, how does the EC50 read?
The EC50 was 36 nM.

Which EC50 does the source give for O=C1S/C(=C\c2ccc3c(cnn3Cc3ccc(Cl)cc3C(F)(F)F)c2)C(=O)N1C1CCN(CC(F)(F)F)CC1 [Compound 150, (5Z)-5-({1-[4-Chloro-2-(trifluoromethyl)benzyl]-1H-indazol-5-yl}methylidene)-3-[1-(2,2,2-trifluoroethyl)piperidin-4-yl]-1,3-thiazolidine-2,4-dione] here?
Its EC50 is 57 nM.
